According to patent US10973831B2, “Fluoropiperidine compounds as pure 5-HT 6 receptor antagonists” (SUVEN LIFE SCIENCES LIMITED, priority 2017, dated 2021):
Counter-ions that a name gives are not always drawn.

Tests used:
[1] = biological target: T1, recombinant human 5-HT6 receptor (Homo sapiens, UniProt P50406); experiment: Determination of Kb for 5-HT6 receptor (CHO cells, pCRE-Luc reporter, cAMP); format: cell-based; settings: 10 μM serotonin, luciferase reporter
T1 construct: expressed in transfected cells
T1 sequence (P50406 whole entry): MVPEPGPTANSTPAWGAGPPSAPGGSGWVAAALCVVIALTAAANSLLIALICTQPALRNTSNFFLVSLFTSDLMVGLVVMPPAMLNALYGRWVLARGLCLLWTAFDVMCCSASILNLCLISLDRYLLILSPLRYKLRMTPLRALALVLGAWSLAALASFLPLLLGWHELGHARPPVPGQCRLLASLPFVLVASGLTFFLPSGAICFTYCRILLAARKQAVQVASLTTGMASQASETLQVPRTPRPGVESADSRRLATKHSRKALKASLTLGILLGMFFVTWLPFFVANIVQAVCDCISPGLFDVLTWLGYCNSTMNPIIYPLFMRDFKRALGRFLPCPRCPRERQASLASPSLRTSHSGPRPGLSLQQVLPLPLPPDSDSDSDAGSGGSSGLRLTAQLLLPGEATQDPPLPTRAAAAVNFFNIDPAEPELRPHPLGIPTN
Procedure: Determination of Kb for 5-HT6 Receptor: A stable CHO cell line expressing recombinant human 5-HT6 receptor and pCRE-Luc reporter system was used for cell based assay. The assay offers a non-radioactive based approach to determine binding of a compound to GPCRs. In this specific assay, the level of intracellular cyclic AMP which is modulated by activation or inhibition of the receptor is measured. The recombinant cells harbor luciferase reporter gene under the control of cAMP response element. The above cells were plated in 96 well clear bottom white plates at a density of 5×10^4 cells/well using Hams F12 medium containing 10% fetal bovine serum (FBS) and incubated overnight at 37° C. and 5% CO2 followed by serum starvation for 18-20 hrs. Increasing concentrations of test compounds were added along with 10 μM serotonin in Opti-MEM to the cells. The incubation was continued at 37° C. in CO2 incubator for 4 hours. After 4 hours cells were lysed using lysis buffer and luciferase assay buffer was added to each well and counts per second were recorded using luminescence counter. From counts per second (CPS) obtained, percent binding was calculated for each well by taking 10 μM 5-HT as 100% bound and vehicle as 0% bound. The percent bound values were plotted against compound concentrations and data were analyzed using a nonlinear, iterative curve-fitting computer program of Graph pad Prism 4 software. The Kb values were calculated using concentration of the agonist used in the assay.

[2] = biological target: T2, recombinant human 5-HT2A (Homo sapiens, UniProt P28223); experiment: Determination of 5-HT2A binding ([3H]-Ketanserin radioligand, membranes); settings: human 5-HT2A membranes, [3H]-Ketanserin 1.75 nM
T2 construct: purchased Perkin Elmer ES-313-M400UA
T2 sequence (P28223 whole entry): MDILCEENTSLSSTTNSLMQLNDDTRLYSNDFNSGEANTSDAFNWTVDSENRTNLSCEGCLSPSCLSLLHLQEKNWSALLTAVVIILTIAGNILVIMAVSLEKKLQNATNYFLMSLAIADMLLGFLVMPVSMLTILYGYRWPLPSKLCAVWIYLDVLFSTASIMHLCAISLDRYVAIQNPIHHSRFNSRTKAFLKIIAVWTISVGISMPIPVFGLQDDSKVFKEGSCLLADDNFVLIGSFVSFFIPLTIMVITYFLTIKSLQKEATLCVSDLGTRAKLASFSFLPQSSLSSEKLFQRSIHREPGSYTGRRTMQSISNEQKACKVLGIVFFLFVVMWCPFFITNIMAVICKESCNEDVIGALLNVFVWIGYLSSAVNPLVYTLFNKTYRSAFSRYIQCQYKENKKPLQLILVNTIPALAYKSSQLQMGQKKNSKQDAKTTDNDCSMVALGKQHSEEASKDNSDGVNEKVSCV
Procedure: Membrane preparation from recombinant human 5-HT2A cell line (Cat no. ES-313-M400UA) and radio ligand Ketanserin Hydrochloride, [Ethylene-^3H]-(R-41468) (Cat no. NET791250UC) were purchased from Perkin Elmer. All other reagents used in buffer preparation were purchased from Sigma. The final ligand concentration was 1.75 nM; non-specific determinant was 1-NP [10 μM] and 5-HT2A membrane protein (5 μg/well). 1-NP was used as a positive control. Reactions were carried out in 67 mM Tris pH 7.6 containing 0.5 mM EDTA buffer for 60 minutes at 25° C. Reaction was stopped by rapid filtration followed by six washes of the binding mixture using 96 well harvest plate (Millipore Cat no. MSFBNXB50) pre coated with 0.33% polyethyleneimine. The plate was dried and the bound radioactivity collected on the filters was determined by scintillation counting using MicroBeta TriLux. Radio ligand binding in the presence of non-labeled compound was expressed as a percent of the total binding and plotted against the log concentration of the compound. Ki values were determined using a nonlinear, iterative curve-fitting computer program of Graph pad Prism 4 software.

[3] = Non-clinical toxicology, repeated dose toxicity study in rat; format: in vivo; settings: rat, female rats
Procedure: (§1) The safety of the example 1 of instant invention and comparator example of U.S. Pat. No. 7,378,415 were evaluated in repeated dose toxicity study in rat.
(§2) Female rats were used as experimental animals for evaluating the toxicity profile of example 1 of instant invention and the comparator example of U.S. Pat. No. 7,378,415.
(§3) During the study, female rats were dosed at incremental doses for minimum of 4 days. Toxicity assessment was done on the mortality, clinical observation, change in the body weight, feed consumption, clinical and anatomical pathology. Systemic exposures were also estimated for both of the compounds. All quantitative variables are compared with control group using one-way ANOVA followed by Dunnet's post-hoc test on GraphPad Prism Software version 4, 2003.

[4] = tested on: Female rats; experiment: as above; format: in vivo; settings: repeated dose toxicity
Procedure: as §1, §2, §3

Row | SMILES | Kb [1] [nM] | Ki [2] [nM] | further results
1 | O=S(=O)(c1ccccc1)c1ccc2c(c1)OCCN2C1CCNCC1F (single isomer, unassigned; peak i) [Example 2, 7-Phenylsulfonyl-4-(3-fluoropiperidin-4-yl)-3,4-dihydro-2H-benzo[1,4]oxazine hydrochloride (Peak I)] | 0.4 | 262 | 
2 | O=S(=O)(c1ccccc1)c1ccc2c(c1)OCCN2C1CCNCC1F (single isomer, unassigned; peak ii) [Example 3, 7-Phenylsulfonyl-4-(3-fluoropiperidin-4-yl)-3,4-dihydro-2H-benzo[1,4]oxazine hydrochloride (Peak II)] | 0.09 | 113 | 
3 | O=S(=O)(c1ccccc1)c1ccc2c(c1)N(C1CCNCC1F)CCO2 (single isomer, unassigned; peak ii) [Example 15, 6-Phenylsulfonyl-4-(3-fluoropiperidin-4-yl)-3,4-dihydro-2H-benzo[1,41]oxazine (Peak II)] | 1.25 | 1660 | 
4 | O=S(=O)(c1cccc(F)c1)c1ccc2c(c1)OCCN2C1CCNCC1F (single isomer, unassigned; peak iii) [Example 7, 7-(3-Fluorophenylsulfonyl)-4-(3-fluoropiperidin-4-yl)-3,4-dihydro-2H-benzo[1,4]oxazine hydrochloride (Peak III)] | < 0.1 | 19.7 | 
5 | O=S(=O)(c1ccccc1)c1ccc2c(c1)OCCN2C1CCNCC1F (single isomer, unassigned; peak iv) [Example 4, 7-Phenylsulfonyl-4-(3-fluoropiperidin-4-yl)-3,4-dihydro-2H-benzo[1,4]oxazine hydrochloride (Peak IV)] | 0.4 | 3930 | 
6 | O=S(=O)(c1cccc(F)c1)c1ccc2c(c1)OCCN2C1CCNCC1F (single isomer, unassigned; peak iv) [Example 8, 7-(3-Fluorophenylsulfonyl)-4-(3-fluoropiperidin-4-yl)-3,4-dihydro-2H-benzo[1,4]oxazine hydrochloride (Peak IV)] | 19 | 804 | 
7 | O=S(=O)(c1ccccc1)c1ccc2c(c1)N(C1CCNCC1F)CCO2 (single isomer, unassigned; peak iv) [Example 17, 6-Phenylsulfonyl-4-(3-fluoropiperidin-4-yl)-3,4-dihydro-2H-benzo[1,41]oxazine (Peak IV)] | 1.79 | 907 | 
8 | O=S(=O)(c1ccccc1)c1ccc2c(c1)OCCN2C1CCNCC1 [Comparator Example, 7-Phenylsulfonyl-4-(piperidin-4-yl)-3,4-dihydro-2H-benzo[1,4]oxazine, reference compound] | 0.1 | 9.02 | NOAEL at 7 days ([3]; in vivo, 7-Day repeat tox): 30 mg/kg; MTD ([3]; in vivo, repeated incremental doses, read-out: Maximum Tolerated Dose): 30 mg/kg; AUC ([3]; plasma, repeated dose toxicity study, read-out: AUC (systemic exposure in toxicity study)): 4050 ng·h/mL; Cmax ([3]; plasma, repeated dose toxicity study, read-out: Cmax (systemic exposure in toxicity study)): 280 ng/mL; Findings (mortality) ([4]; listed as Comparator example of U.S. Pat. No. 7,378,415): Mortality at ≥; Findings (mortality) ([4]; listed as comparator example of U.S. Pat. No. 7,378,415): deaths were observed at doses >100 mg/kg on second day of dosing
